Measurements taken from patent US11091478B2 (Fochon Pharmaceuticals, Ltd., priority 2017, dated 2021).

Key:
DOHH2 cells = assay: Cell proliferation assay (MTS), DOHH2 cells, 120 h; format: cell-based; details: Homo sapiens, DOHH-2, 120 h
Summary of the method: (§1)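 RS4;11 and DOHH2 cells at 5000 cells/well in RPMI-1640 with 10% FBS were treated with compound at 1.5–10000 nM final, nine points, at 37 °C, 5% CO2. Exposure was 72 h for RS4;11 and 120 h for DOHH2. MTS was added for 2 h, absorbance read at 490/650 nm, and IC50 calculated.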

RS4;11 cells = assay: Cell proliferation assay (MTS), RS4;11 cells, 72 h; format: cell-based; details: Homo sapiens, RS4-11, 72 h
Summary of the method: as §1

SMILES	IC50 (DOHH2 cells) [nM]	IC50 (RS4;11 cells) [nM]
CC1(C)CCC(CN2CCN(c3ccc(C(=O)NS(=O)(=O)c4cc5c(c([N+](=O)[O-])c4)N[C@@H](C4CCN(S(C)(=O)=O)CC4)CO5)c(Oc4cnc5[nH]ccc5c4)c3)CC2)=C(c2ccc(Cl)cc2)C1 [Example 2-232, (S)-2-((1H-pyrrolo[2,3-b]pyridin-5-yl)oxy)-4-(4-((4′-chloro-5,5-dimethyl-3,4,5,6-tetra-hydro-[1,1′-biphenyl]-2-yl)methyl)piperazin-1-yl)-N-((3-(1-(methyslulfonyl)piperidin-4-yl)-5-nitro-3,4-dihydro-2H-benzo[b][1,4]oxazin-7-yl)sulfonyl)benzamide]	1	6
CC1(C)CCC(CN2CCN(c3ccc(C(=O)NS(=O)(=O)c4cc5c(c([N+](=O)[O-])c4)NC(C4CCOCC4)CO5)c(Oc4cnc5[nH]ccc5c4)c3)CC2)=C(c2ccc(Cl)cc2)C1 (stereo not drawn) [Example 2-185, 2-((1H-pyrrolo[2,3-b]pyridin-5-yl)oxy)-4-(4-((4′-chloro-5,5-dimethyl-3,4,5,6-tetra-hydro[1,1′-biphenyl]-2-yl)methyl)piperazin-1-yl)-N-((5-nitro-3-(tetrahydro-2H-pyran-4-yl)-3,4-dihydro-2H-benzo[b][1,4]oxazin-7-yl)sulfonyl)benzamide]	3	1
CC1(C)CCC(CN2CCN(c3ccc(C(=O)NS(=O)(=O)c4cc5c(c([N+](=O)[O-])c4)N[C@H](C4CCN(S(C)(=O)=O)CC4)CO5)c(Oc4cnc5[nH]ccc5c4)c3)CC2)=C(c2ccc(Cl)cc2)C1 [Example 2-225, (R)-2-((1H-pyrrolo[2,3-b]pyridin-5-yl)oxy)-4-(4-((4′-chloro-5,5-dimethyl-3,4,5,6-tetra-hydro-[1,1′-biphenyl]-2-yl)methyl)piperazin-1-yl)-N-((3-(1-(methylsulfonyl)piperidin-4-yl)-5-nitro-3,4-dihydro-2H-benzo[b][1,4]oxazin-7-yl)sulfonyl)benzamide]	15	2
CC1(C)CCC(CN2CCN(c3ccc(C(=O)NS(=O)(=O)c4cc5c(c([N+](=O)[O-])c4)N[C@H](CCN4CCOCC4)CS5)c(Oc4cnc5[nH]ccc5c4)c3)CC2)=C(c2ccc(Cl)cc2)C1 [Example 3-2, (R)-2-((1H-pyrrolo[2,3-b]pyridin-5-yl)oxy)-4-(4-((4′-chloro-5,5-dimethyl-3,4,5,6-tetrahydro-[1,1′-biphenyl]-2-yl)methyl)piperazin-1-yl)-N-((3-(2-morpholinoethyl)-5-nitro-3,4-dihydro-2H-benzo[b][1,4]thiazin-7-yl)sulfonyl)benzamide]	13	3
CC1(C)CCC(CN2CCN(c3ccc(C(=O)NS(=O)(=O)c4cc5c(c([N+](=O)[O-])c4)N[C@@H](C4CCC(O)CC4)CO5)c(Oc4cnc5[nH]ccc5c4)c3)CC2)=C(c2ccc(Cl)cc2)C1 (stereo partly drawn) [Example 2-245A, (S)-2-((1H-pyrroo[2,3-b]pyridin-5-yl)oxy)-4-(4-((4′-chloro-5,5-dimethyl-3,4,5,6-tetra-hydro-[1,1′-biphenyl]-2-yl)methyl)piperazin-1-yl)-N-((3-(4-hydroxycyclohexyl)-5-nitro-3,4-dihydro-2H-benzo[b][1,4]oxazin-7-yl)sulfonyl)benzamide]	1	1
C[C@H]1CNc2c(cc(S(=O)(=O)NC(=O)c3ccc(N4CCN(CC5=C(c6ccc(Cl)cc6)CC(C)(C)CC5)CC4)cc3Oc3cnc4[nH]ccc4c3)cc2[N+](=O)[O-])O1 [Example 2-105, (S)-2-((1H-pyrrolo[2,3-b]pyridin-5-yl)oxy)-4-(4-((4′-chloro-5,5-dimethyl-3,4,5,6-tetra-hydro-[1,1′-biphenyl]-2-yl)methyl)piperazin-1-yl)-N-((2-methyl-5-nitro-3,4-dihydro-2H-benzo[b][1,4]oxazin-7-yl)sulfonyl)benza-mide]	51	35
CC1(C)CCC(CN2CCN(c3ccc(C(=O)NS(=O)(=O)c4cc5c(c([N+](=O)[O-])c4)N[C@H](CN=S4(=O)CCCC4)CO5)c(Oc4cnc5[nH]ccc5c4)c3)CC2)=C(c2ccc(Cl)cc2)C1 [Example 2-71, (R)-2-((1H-pyrrolo[2,3-b]pyridin-5-yl)oxy)-4-(4-((4′-chloro-5,5-dimethyl-3,4,5,6-tetra-hydro-[1,1′-biphenyl]-2-yl)methyl)piperazin-1-yl)-N-((5-nitro-3-(((1-oxidotetrahydro-1λ^6-thiophen-1-ylidene)amino)methyl)-3,4-dihydro-2H-benzo[b][1,4]oxazin-7-yl)sulfo-nyl)benzamide]	43	58
CN1CCC(C[C@H]2COc3cc(S(=O)(=O)NC(=O)c4ccc(N5CCN(CC6=C(c7ccc(Cl)cc7)CC(C)(C)CC6)CC5)cc4Oc4cnc5[nH]ccc5c4)cc([N+](=O)[O-])c3N2)CC1 [Example 2-193, (S)-2-((1H-pyrrolo[2,3-b]pyridin-5-yl)oxy)-4-(4-((4′-chloro-5,5-dimethyl-3,4,5,6-tetra-hydro-[1,1′-biphenyl]-2-yl)methyl)piperazin-1-yl)-N-((3-((1-methylpiperidin-4-yl)meth-yl)-5-nitro-3,4-dihydro-2H-benzo[b][1,4]oxazin-7-yl)sulfonyl)benzamide]	28	1
CN1CCN(C(=O)C[C@H]2Cc3cc(S(=O)(=O)NC(=O)c4ccc(N5CCN(CC6=C(c7ccc(Cl)cc7)CC(C)(C)CC6)CC5)cc4Oc4cnc5[nH]ccc5c4)cc([N+](=O)[O-])c3N2)CC1 [Example 1-25]	6	6
CN(C)CC[C@@H]1Cc2cc(S(=O)(=O)NC(=O)c3ccc(N4CCN(CC5=C(c6ccc(Cl)cc6)CC(C)(C)CC5)CC4)cc3Oc3cnc4[nH]ccc4c3)cc([N+](=O)[O-])c2N1 [Example 1-14, (S)-2-((1H-pyrrolo[2,3-b]pyridin-5-yl)oxy)-4-(4-((4′-chloro-5,5-dimethyl-3,4,5,6-tetra-hydro-[1,1′-biphenyl]-2-yl)methyl)piperazin-1-yl)-N-((2-(2-(dimethylamino)ethyl)-7-nitroindolin-5-yl)sulfonyl)benzamide]	57	52
C[C@@H]1CN(C[C@H]2COc3cc(S(=O)(=O)NC(=O)c4ccc(N5CCN(CC6=C(c7ccc(Cl)cc7)CC(C)(C)CC6)CC5)cc4Oc4cnc5[nH]ccc5c4)cc([N+](=O)[O-])c3N2)CCO1 [Example 2-32, 2-((1H-pyrrolo[2,3-b]pyridin-5-yl)oxy)-4-(4-((4′-chloro-5,5-dimethyl-3,4,5,6-tetrahydro-[1,1′-biphenyl]-2-yl)methyl)piperazin-1-yl)-N-(((S)-3-(((R)-2-methylmorpholino)meth-yl)-5-nitro-3,4-dihydro-2H-benzo[b][1,4]oxazin-7-yl)sulfonyl)benzamide]	34	18
CN(C)C[C@H]1COc2cc(S(=O)(=O)NC(=O)c3ccc(N4CCN(CC5=C(c6ccc(Cl)cc6)CC(C)(C)CC5)CC4)cc3Oc3cnc4[nH]ccc4c3)cc([N+](=O)[O-])c2N1 [Example 2-20, (S)-2-((1H-pyrrolo[2,3-b]pyridin-5-yl)oxy)-4-(4-((4′-chloro-5,5-dimethyl-3,4,5,6-tetra-hydro-[1,1′-biphenyl]-2-yl)methyl)piperazin-1-yl)-N-((3-((dimethylamino)methyl)-5-nitro-3,4-dihydro-2H-benzo[b][1,4]oxazin-7-yl)sulfonyl)benzamide]	59	29
